The record followed here is patent US11020399B2, “Intermediates useful in the synthesis of compounds as modulators of protein kinases” (Rhizen Pharmaceuticals SA, priority 2011, dated 2021).

What all share (format): biochemical
Assay [1] addresses PI3kδ (Homo sapiens, UniProt O00329). Description: Fluorescent (HTRF) determination of PI3 kinase enzyme activity, PI3Kδ. To be noted: for inhibition at 0.1 µM / % inhibition (PI3kδ) 100 nM: 100 nM (Examples 60-137); for % inhibition (PI3kδ) 100 nM: 0.1 µM; for inhibition at 0.3 µM: 300 nM (Examples 1-59). The text has this: (§1) Assay 1: Fluorescent Determination of PI3Kinase Kinase Enzyme Activity
(§2) Phosphoinositide 3 kinases (PI3K) belong to a class of lipid kinases that play a critical role in the regulation of several key cellular processes. The PI3K are capable of phosphorylating the 3-hydroxy position of phosphoinositols thereby generating second messengers involved in downstream signalling events. The homogenous time resolved fluorescence (HTRF) assay allows detection of 3,4,5-triphosphate (PIP3) formed as a result of phosphorylation of phosphotidylinositol 4,5-biphosphate (PIP2) by PI3K isoforms such as α, β, γ or δ. PI3K isoform activity for a, p, y or 8 was determined using a PI3K human HTRF™ Assay Kit (Millipore, Billerica, Mass.) with modifications. All incubations were carried out at room temperature. Briefly, 0.5 μl of 40× inhibitor (in 100% DMSO) or 100% DMSO were added to each well of a 384-well black plate (Greiner Bio-One, Monroe, N.C.) containing 14.5 μl IX reaction buffer /PIP2 (10 mM MgCl2, 5 mM DTT, 1.38 μM PIP2) mix with or without enzyme and incubated for 10 min. After the initial incubation, 5 μl/well of 400 μM ATP was added and incubated for an additional 30 minutes. Reaction was terminated by adding 5 μl/well stop solution (Millipore, Billerica, Mass.). Five microliters of detection mix (Millipore, Billerica, Mass.) were then added to each well and was incubated for 6-18 h in the dark. HRTF ratio was measured on a microplate reader (BMG Labtech., Germany) at an excitation wavelength of 337 nm and emission wavelengths of 665 and 620 nm with an integration time of 400 μsec.
(§3) Data were analyzed using Graphpad Prism (Graphpad software; San Diego Calif.) for IC50 determination. Examples 1-59 were tested at 1 uM for Pi3kα & Pi3k β and at 0.3 uM for γ and δ. Examples 60-137 were tested at 1 uM for Pi3kα & Pi3k β and at 0.1 uM for γ and δ. Percent inhibition was calculated based on the values for the blank and enzyme controls. The results are as provided in Table 2 (wherein D=0 to 25%; C=>25 to 50%; B=>50 to 75%; A=>75 to 100%; +++++=≤50 nM; ++++=>50 to ≤100 nM; +++=>100 to ≤300 nM; ++=>300 to ≤500 nM; +=>500 nM)

In assay [2] the target is PI3kγ (Homo sapiens, UniProt P48736). Description: Fluorescent (HTRF) determination of PI3 kinase enzyme activity, PI3Kγ. The following applies: for inhibition at 0.1 µM / % inhibition (PI3kγ) 100 nM: 100 nM (Examples 60-137); for inhibition at 0.3 µM: 300 nM (Examples 1-59).
From the text: as §1, §2, §3

Assay [3] has as its target PI3kβ (Homo sapiens, UniProt P42338). Description: Fluorescent (HTRF) determination of PI3 kinase enzyme activity, PI3Kβ.
From the text: as §1, §2, §3

For assay [4], the target named is PI3kα (Homo sapiens, UniProt P42336). In words: Fluorescent (HTRF) determination of PI3 kinase enzyme activity, PI3Kα.
From the text: as §1, §2, §3

Chain of PI3kβ (P42338 whole entry): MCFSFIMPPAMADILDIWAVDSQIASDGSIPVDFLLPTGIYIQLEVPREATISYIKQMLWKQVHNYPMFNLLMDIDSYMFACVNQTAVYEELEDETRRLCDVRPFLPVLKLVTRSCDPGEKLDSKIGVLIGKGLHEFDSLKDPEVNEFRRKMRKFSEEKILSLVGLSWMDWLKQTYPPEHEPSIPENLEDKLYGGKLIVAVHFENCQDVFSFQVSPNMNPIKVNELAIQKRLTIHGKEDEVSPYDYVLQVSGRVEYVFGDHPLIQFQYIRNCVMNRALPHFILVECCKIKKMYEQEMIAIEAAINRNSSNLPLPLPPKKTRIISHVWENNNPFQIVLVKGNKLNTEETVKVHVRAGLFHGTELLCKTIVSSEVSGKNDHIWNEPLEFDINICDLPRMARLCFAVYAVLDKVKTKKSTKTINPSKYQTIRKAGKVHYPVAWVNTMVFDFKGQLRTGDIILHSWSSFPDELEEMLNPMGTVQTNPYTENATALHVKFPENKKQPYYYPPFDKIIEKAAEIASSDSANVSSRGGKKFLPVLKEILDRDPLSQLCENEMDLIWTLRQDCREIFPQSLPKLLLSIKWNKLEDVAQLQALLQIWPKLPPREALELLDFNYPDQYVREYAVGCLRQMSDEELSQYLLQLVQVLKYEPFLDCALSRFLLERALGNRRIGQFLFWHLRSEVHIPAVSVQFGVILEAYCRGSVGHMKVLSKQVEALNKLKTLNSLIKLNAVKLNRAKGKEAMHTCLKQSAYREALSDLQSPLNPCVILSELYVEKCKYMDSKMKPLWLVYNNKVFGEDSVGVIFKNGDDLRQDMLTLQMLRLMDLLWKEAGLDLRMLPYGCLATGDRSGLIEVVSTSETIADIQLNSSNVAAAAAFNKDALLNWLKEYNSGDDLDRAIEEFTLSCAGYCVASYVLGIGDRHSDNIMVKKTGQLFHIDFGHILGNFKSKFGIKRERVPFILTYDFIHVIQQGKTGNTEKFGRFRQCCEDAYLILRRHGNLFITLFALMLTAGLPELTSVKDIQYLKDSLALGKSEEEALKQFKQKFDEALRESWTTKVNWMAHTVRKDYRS
Chain of PI3kβ (P27986 whole entry partner): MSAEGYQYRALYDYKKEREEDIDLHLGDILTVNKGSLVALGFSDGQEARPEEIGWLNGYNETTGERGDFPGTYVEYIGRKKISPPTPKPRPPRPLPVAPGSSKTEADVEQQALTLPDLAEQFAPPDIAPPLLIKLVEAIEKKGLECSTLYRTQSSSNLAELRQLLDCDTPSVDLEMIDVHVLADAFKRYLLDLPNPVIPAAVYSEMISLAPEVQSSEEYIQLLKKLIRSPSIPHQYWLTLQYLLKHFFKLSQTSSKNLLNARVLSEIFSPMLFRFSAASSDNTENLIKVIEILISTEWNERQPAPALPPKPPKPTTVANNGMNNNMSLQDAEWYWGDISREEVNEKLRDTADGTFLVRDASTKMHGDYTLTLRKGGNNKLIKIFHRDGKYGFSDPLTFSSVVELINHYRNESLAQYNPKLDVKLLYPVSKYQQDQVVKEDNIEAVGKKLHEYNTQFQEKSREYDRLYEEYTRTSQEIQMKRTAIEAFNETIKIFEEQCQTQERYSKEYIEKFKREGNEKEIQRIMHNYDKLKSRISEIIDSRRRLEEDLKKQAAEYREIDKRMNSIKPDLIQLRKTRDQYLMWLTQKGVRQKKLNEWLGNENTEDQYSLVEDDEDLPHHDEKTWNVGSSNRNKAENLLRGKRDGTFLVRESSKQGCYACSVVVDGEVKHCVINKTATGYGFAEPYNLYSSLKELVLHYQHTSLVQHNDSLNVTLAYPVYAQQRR
Chain of PI3kα (P42336 whole entry): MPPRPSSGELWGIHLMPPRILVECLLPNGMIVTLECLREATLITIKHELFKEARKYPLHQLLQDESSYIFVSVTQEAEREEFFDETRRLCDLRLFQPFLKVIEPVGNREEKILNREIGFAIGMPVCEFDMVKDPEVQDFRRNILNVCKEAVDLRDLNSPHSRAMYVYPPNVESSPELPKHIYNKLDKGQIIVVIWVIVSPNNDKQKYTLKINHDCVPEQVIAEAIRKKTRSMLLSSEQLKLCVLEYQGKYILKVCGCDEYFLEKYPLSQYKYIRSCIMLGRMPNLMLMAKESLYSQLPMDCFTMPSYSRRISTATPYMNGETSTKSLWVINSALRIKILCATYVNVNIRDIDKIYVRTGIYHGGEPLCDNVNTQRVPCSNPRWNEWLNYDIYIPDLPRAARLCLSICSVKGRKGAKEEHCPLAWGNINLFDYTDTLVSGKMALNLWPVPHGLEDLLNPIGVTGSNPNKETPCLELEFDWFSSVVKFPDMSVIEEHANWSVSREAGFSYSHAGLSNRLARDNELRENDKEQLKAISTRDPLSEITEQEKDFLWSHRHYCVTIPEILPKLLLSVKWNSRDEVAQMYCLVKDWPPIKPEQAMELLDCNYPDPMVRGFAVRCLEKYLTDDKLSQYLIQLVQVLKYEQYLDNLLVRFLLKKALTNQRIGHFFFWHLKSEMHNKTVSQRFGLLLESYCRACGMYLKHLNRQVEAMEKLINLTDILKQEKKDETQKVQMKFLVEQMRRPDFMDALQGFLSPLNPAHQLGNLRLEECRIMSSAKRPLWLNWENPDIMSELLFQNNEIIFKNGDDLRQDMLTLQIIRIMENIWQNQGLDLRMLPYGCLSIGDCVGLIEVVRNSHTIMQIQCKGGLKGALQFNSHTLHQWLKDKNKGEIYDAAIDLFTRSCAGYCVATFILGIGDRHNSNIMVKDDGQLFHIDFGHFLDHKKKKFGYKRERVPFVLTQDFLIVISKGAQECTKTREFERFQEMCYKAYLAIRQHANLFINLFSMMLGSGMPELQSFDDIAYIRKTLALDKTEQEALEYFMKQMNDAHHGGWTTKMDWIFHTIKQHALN
Chain of PI3kα (P27986 whole entry partner): as the sequence (P27986 whole entry partner) above
Chain of PI3kδ (O00329 whole entry): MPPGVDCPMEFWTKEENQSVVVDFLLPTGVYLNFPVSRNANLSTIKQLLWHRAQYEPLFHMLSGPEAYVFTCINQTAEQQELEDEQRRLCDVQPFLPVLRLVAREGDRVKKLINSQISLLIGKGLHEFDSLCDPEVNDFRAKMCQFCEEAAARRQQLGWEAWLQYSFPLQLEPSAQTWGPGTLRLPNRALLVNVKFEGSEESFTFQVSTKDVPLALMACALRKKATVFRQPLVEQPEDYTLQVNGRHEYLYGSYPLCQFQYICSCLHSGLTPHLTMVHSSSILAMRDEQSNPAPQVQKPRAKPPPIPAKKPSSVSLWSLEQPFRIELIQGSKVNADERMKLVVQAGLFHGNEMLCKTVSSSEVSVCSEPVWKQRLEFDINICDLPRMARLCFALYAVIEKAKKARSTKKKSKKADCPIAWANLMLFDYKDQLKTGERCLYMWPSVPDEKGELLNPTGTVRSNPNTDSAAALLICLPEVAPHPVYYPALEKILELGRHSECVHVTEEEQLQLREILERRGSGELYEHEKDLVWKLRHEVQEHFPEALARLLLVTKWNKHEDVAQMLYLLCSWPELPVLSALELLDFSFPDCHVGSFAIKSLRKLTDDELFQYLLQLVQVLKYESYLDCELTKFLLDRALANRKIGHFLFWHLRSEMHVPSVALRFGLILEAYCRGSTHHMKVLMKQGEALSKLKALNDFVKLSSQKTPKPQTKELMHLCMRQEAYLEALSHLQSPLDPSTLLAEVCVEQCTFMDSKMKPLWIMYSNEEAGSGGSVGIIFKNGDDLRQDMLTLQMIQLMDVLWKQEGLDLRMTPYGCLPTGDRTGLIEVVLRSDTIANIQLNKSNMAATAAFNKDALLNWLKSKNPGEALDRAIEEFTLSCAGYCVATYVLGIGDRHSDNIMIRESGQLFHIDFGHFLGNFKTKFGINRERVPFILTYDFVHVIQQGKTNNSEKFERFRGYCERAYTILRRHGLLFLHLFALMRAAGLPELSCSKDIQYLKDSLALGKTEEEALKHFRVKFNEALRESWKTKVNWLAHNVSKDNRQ
Chain of PI3kδ (P27986 whole entry partner): as the sequence (P27986 whole entry partner) above
Chain of PI3kγ (P48736 whole entry): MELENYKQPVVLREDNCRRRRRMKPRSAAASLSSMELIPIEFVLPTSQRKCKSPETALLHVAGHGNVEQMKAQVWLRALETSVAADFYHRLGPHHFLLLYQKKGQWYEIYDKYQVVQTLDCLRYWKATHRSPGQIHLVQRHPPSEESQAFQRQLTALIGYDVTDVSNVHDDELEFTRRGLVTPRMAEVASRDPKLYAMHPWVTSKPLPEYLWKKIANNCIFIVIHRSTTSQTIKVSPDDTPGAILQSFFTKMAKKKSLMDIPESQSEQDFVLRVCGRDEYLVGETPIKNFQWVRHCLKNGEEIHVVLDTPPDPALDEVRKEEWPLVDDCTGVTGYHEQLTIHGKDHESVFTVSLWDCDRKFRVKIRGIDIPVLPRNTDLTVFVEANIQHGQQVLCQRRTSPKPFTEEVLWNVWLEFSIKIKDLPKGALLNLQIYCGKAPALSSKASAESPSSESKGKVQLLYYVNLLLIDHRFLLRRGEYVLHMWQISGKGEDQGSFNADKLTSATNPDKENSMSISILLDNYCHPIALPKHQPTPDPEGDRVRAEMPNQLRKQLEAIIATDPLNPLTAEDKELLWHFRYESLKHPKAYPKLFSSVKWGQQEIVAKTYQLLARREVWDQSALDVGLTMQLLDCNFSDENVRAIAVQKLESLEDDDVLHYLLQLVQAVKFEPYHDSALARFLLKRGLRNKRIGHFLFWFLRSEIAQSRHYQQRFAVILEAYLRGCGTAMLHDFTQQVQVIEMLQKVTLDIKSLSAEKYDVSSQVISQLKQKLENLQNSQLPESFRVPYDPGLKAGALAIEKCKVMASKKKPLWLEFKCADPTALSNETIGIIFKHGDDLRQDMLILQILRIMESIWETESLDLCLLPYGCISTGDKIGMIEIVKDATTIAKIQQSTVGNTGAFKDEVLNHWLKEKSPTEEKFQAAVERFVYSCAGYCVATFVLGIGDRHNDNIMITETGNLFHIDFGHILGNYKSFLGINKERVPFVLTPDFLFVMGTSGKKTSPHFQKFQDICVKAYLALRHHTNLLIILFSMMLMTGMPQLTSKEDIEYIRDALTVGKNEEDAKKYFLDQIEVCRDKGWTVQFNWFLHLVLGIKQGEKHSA

Regarding `CC(c1oc2cccc(F)c2c(=O)c1-c1ccc(F)cc1)n1cnc2c(N3CCN(C)CC3)ncnc21` (stereo not drawn) [Example 109, 5-fluoro-3-(4-fluorophenyl)-2-(1-(6-(4-methylpiperazin-1-yl)-9H-purin-9-yl)ethyl)-4H-chromen-4-one], the inhibition at 0.1 µM in assay [1] fell in the range of 25 to 50%; in assay [2] it was 0 to 25%.
Consider `CNc1ncnc2c1ncn2C(C)c1oc2cccc(F)c2c(=O)c1-c1cccc(F)c1` (stereo not drawn) [Example 111, 5-fluoro-3-(3-fluorophenyl)-2-(1-(6-(methylamino)-9H-purin-9-yl)ethyl)-4H-chromen-4-one], for which the inhibition at 0.1 µM in assay [1] and in assay [2] was 25 to 50% throughout. In assay [3], this compound had an inhibition at 1 µM of 0 to 25%.
Regarding `CNc1ncnc2c1c(-c1ccc(OC(C)C)c(F)c1)nn2C(C)c1oc2cccc(F)c2c(=O)c1-c1cccc(F)c1` (single isomer, unassigned; (-)) [Example 105, (−)-5-fluoro-2-(1-(3-(3-fluoro-4-isopropoxyphenyl)-4-(methylamino)-1H-pyrazolo[3,4-d]pyrimidin-1-yl)ethyl)-3-(3-fluorophenyl)-4H-chromen-4-one], in assay [1], the “% inhibition (PI3kδ) 100 nM” value is listed as “D (D=0 to 25%)”. The “% inhibition (PI3kγ) 100 nM” value in assay [2] is “C (C=>25 to 50%)”.
As for `CC(C)Oc1ccc(-c2nn(C(C)c3oc4cccc(F)c4c(=O)c3-c3cccc(F)c3)c3ncnc(N)c23)cc1Cl` (stereo not drawn) [Example 117, 2-(1-(4-amino-3-(3-chloro-4-isopropoxyphenyl)-1H-pyrazolo[3,4-d]pyrimidin-1-yl)ethyl)-5-fluoro-3-(3-fluorophenyl)-4H-chromen-4-one], the inhibition at 0.1 µM in assay [1] and in assay [2] was 25 to 50% in each case. In assay [4] (1 uM), the inhibition at 1 µM was 50 to 75%.
Compound `COc1cccc2oc(Cn3cnc4c(N)ncnc43)c(-c3cccc(F)c3)c(=O)c12` [Example 1] came in with an inhibition at 0.3 µM in assay [1] of 50 to 75%. Besides, the inhibition at 1 µM in assay [3] and in assay [4] (1 uM) was 25 to 50% in each case.
Compound `Nc1ncnc2c1c(-c1cc(O)cc(F)c1)nn2Cc1oc2cccc(F)c2c(=O)c1-c1cccc(F)c1` [Example 5, 2-((4-amino-3-(3-fluoro-5-hydroxyphenyl)-1H-pyrazolo[3,4-d]pyrimidin-1-yl)methyl)-5-fluoro-3-(3-fluorophenyl)-4H-chromen-4-one] registered an inhibition at 0.3 µM in assay [1] of 50 to 75%. Also, the IC50 in assay [3] is 300 to 500 nM; in assay [4] (numeric values) it was greater than 10000 nM. Further, the results for the inhibition at 1 µM in assay [3] and in assay [4] (1 uM) were 0 to 25% and 25 to 50%, respectively.
With `CC(C)c1nn(C(C)c2oc3cccc(F)c3c(=O)c2-c2cccc(F)c2)c2ncnc(N)c12` (stereo not drawn) [Example 35, 2-(1-(4-amino-3-isopropyl-1H-pyrazolo[3,4-d]pyrimidin-1-yl)ethyl)-5-fluoro-3-(3-fluorophenyl)-4H-chromen-4-one], the values for the inhibition at 0.3 µM in assay [1] and in assay [2] were 0 to 25% and 25 to 50%, respectively.
With `CCC(c1oc2cccc(F)c2c(=O)c1-c1cccc(F)c1)n1nc(-c2ccc(OC(C)C)c(F)c2)c2c(N)ncnc21` (stereo not drawn) [Example 133, 2-(1-(4-amino-3-(3-fluoro-4-isopropoxyphenyl)-1H-pyrazolo[3,4-d]pyrimidin-1-yl)propyl)-5-fluoro-3-(3-fluorophenyl)-4H-chromen-4-one], the inhibition at 0.1 µM was 25 to 50% in assay [1] and 50 to 75% in assay [2]. The inhibition at 1 µM in assay [3] is 50 to 75%.
`CC(c1oc2cccc(F)c2c(=O)c1-c1ccccc1)n1nc(-c2ccc(OC(F)F)c(F)c2)c2c(N)ncnc21` (single isomer, unassigned) [Example 103]: the values for the inhibition at 0.1 µM in assay [1] and in assay [2] were 0 to 25% and 25 to 50%, respectively.
On the same counts, the results for `CNc1ncnc2c1c(-c1ccc(N3CCOCC3)c(F)c1)nn2C(C)c1oc2cccc(F)c2c(=O)c1-c1cccc(F)c1` (stereo not drawn) [Example 99, 5-fluoro-2-(1-(3-(3-fluoro-4-morpholinophenyl)-4-(methylamino)-1H-pyrazolo[3,4-d]pyrimidin-1-yl)ethyl)-3-(3-fluorophenyl)-4H-chromen-4-one] are 25 to 50% and 25 to 50%.
For the compound `CC(c1oc2cccc(F)c2c(=O)c1-c1ccc(F)cc1)n1nc(-c2ccc(N3CCOCC3)c(F)c2)c2c(N)ncnc21` (stereo not drawn) [Example 93, 2-(1-(4-amino-3-(3-fluoro-4-morpholinophenyl)-1H-pyrazolo[3,4-d]pyrimidin-1-yl)ethyl)-5-fluoro-3-(4-fluorophenyl)-4H-chromen-4-one], the inhibition at 0.1 µM in assay [1] lay in the range of 25 to 50%; in assay [2], 0 to 25%.
`CC(C)Oc1ccc(-c2nn(C(C)c3oc4cccc(F)c4c(=O)c3-c3ccc(F)cc3)c3ncnc(N)c23)cc1F` (single isomer, unassigned) [Example 95]: the inhibition at 0.1 µM in assay [1] lay in the range of 25 to 50%; in assay [2], 0 to 25%.
On the same counts, the results for `CC(c1oc2cccc(F)c2c(=O)c1-c1ccccc1)n1nc(-c2ccc(N3CCOCC3)c(F)c2)c2c(N)ncnc21` (stereo not drawn) [Example 92, 2-(1-(4-amino-3-(3-fluoro-4-morpholinophenyl)-1H-pyrazolo[3,4-d]pyrimidin-1-yl)ethyl)-5-fluoro-3-phenyl-4H-chromen-4-one] are 0 to 25% and 0 to 25%.
On the same counts, the results for `CC(c1oc2cccc(F)c2c(=O)c1-c1ccc(F)cc1)n1nc(-c2ccc(OC(F)F)c(F)c2)c2c(N)ncnc21` (racemic) [Example 96, (S)/(R)-2-(1-(4-amino-3-(4-(difluoromethoxy)-3-fluorophenyl)-1H-pyrazolo[3,4-d]pyrimidin-1-yl)ethyl)-5-fluoro-3-(4-fluorophenyl)-4H-chromen-4-one] are 0 to 25% and 0 to 25%.
With `CC(Nc1ncnc2[nH]cnc12)c1oc2cccc(F)c2c(=O)c1-c1cccc(F)c1` (stereo not drawn) [Example 15, 2-(1-(9H-purin-6-ylamino)ethyl)-5-fluoro-3-(3-fluorophenyl)-4H-chromen-4-one], the inhibition at 0.3 µM in assay [1] and in assay [2] was 0 to 25% throughout.
As to `CC(c1oc2cccc(F)c2c(=O)c1-c1cccc(F)c1)n1cnc2c(N)nc(F)nc21` (stereo not drawn) [Example 106, 2-(1-(6-amino-2-fluoro-9H-purin-9-yl)ethyl)-5-fluoro-3-(3-fluorophenyl)-4H-chromen-4-one], the inhibition at 0.1 µM lay in the range of 0 to 25% in assay [1] and 25 to 50% in assay [2].
The matching figures for `CC(c1oc2cccc(F)c2c(=O)c1-c1cccc(F)c1)n1cnc2c(N3CCOCC3)ncnc21` (stereo not drawn) [Example 119, 5-fluoro-3-(3-fluorophenyl)-2-(1-(6-morpholino-9H-purin-9-yl)ethyl)-4H-chromen-4-one]: 0 to 25% and 25 to 50%.
As to `CC(c1oc2cccc(F)c2c(=O)c1-c1cccc(F)c1)n1nc(-c2ccc(OC3CCNCC3)c(F)c2)c2c(N)ncnc21` (stereo not drawn) [Example 21, 2-(1-(4-amino-3-(3-fluoro-4-(piperidin-4-yloxy)phenyl)-1H-pyrazolo[3,4-d]pyrimidin-1-yl)ethyl)-5-fluoro-3-(3-fluorophenyl)-4H-chromen-4-one], the inhibition at 0.3 µM lay in the range of 25 to 50% in assay [1] and 0 to 25% in assay [2].
In the case of `CNc1ncnc2c1c(-c1ccc(OC(C)C)c(F)c1)nn2C(C)c1oc2cccc(F)c2c(=O)c1-c1cccc(F)c1` (single isomer, unassigned; (+)) [Example 104, (+)-5-fluoro-2-(1-(3-(3-fluoro-4-isopropoxyphenyl)-4-(methylamino)-1H-pyrazolo[3,4-d]pyrimidin-1-yl)ethyl)-3-(3-fluorophenyl)-4H-chromen-4-one], the “% inhibition (PI3kδ) 100 nM” value in assay [1] was “D (D=0 to 25%)”. This compound also displayed an inhibition at 0.1 µM in assay [2] of 25 to 50%.
Consider `Cc1cc(-c2nn(C(C)c3oc4cccc(F)c4c(=O)c3-c3cccc(F)c3)c3ncnc(N)c23)ccc1OC(C)C` (single isomer, unassigned; (+)) [Example 114, (+) 2-(1-(4-amino-3-(4-isopropoxy-3-methylphenyl)-1H-pyrazolo[3,4-d]pyrimidin-1-yl)ethyl)-5-fluoro-3-(3-fluorophenyl)-4H-chromen-4-one], for which the “% inhibition (PI3kδ) 100 nM” value in assay [1] is on record as “B (B=>50 to 75%)”. Moreover, the “% inhibition (PI3kα) 1 uM” value in assay [4] (1 uM) is given as “D (D=0 to 25%)”. Besides, the “% inhibition (PI3kγ) 100 nM” value in assay [2] (0.1 µM) is listed as “B (B=>50 to 75%)”.
